Measurements: ChEMBL document CHEMBL4312002, “Impact of hydroxy moieties at the benzo[7]annulene ring system of GluN2B ligands: Design, synthesis and biological evaluation” (Bioorg Med Chem, 2019)

Key:
[1] = Cytoprotection against glutamate/glycine-induced cytotoxicity against mouse LTK cells expressing GluN1a/GluN2B at 10 uM measured after 30 mins by LDH assay relative to control; type: functional
[2] = Displacement of [3H]ifenprodil from GluN1A/GluN2B (unknown origin) expressed in mouse L(tk-) cell membranes after 120 mins by solid scintillation counting method; parameters: species or system Homo sapiens
[3] = Cytoprotection against glutamate/glycine-induced cytotoxicity against mouse LTK cells expressing GluN1a/GluN2B preincubated 30 mins followed by glutamate/glycine addition and measured after 6 hrs by LDH assay; type: functional, cell-based
[4] = Cytoprotection against glutamate/glycine-induced cytotoxicity against mouse LTK cells expressing GluN1a/GluN2B assessed as inhibition of cell growth measured after 12 hrs by LDH assay; type: functional, cell-based
[5] = Retention time of (2S,3S,4S,5R)-3,4,5-trihydroxy-6-(7-(methyl(3-phenylpropyl)amino)-6,7,8,9-tetrahydro-5H-benzo[7]annulen-5-yloxy)tetrahydro-2H-pyran-2-carboxylic acid metabolite in C57BL/6 mouse liver microsomes at 25 uM by LC-qTOF/MS analysis; type: ADME, Microsome
[6] = molecular target: T1, Sigma intracellular receptor 2 (Rattus norvegicus, UniProt Q5U3Y7); experiment: Displacement of [3H]di-o-tolylguanidine from sigma2 receptor in rat liver membranes measured after 120 mins by solid scintillation counting method; type: cell membranes
T1 sequence (Q5U3Y7 whole entry): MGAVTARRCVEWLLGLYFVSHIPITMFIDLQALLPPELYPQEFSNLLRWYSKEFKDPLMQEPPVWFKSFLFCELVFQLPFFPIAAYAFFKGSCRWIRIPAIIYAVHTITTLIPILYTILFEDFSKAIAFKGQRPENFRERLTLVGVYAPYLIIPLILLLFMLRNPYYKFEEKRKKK

[7] = molecular target: Sigma non-opioid intracellular receptor 1 (Cavia porcellus) (UniProt Q60492); experiment: Displacement of [3H]-(+)-pentazocine from sigma1 receptor in guinea pig brain cortex membranes at 1 uM incubated for 120 mins by solid scintillation counting method relative to control; type: cell membranes
Sus scrofa = species on record: Sus scrofa; experiment: Displacement of [3H]-(+)-MK-801 from PCP binding site of NMDA receptor in pig brain cortex membranes at 1 uM after 120 mins by solid scintillation counting method relative to control; type: cell membranes
[8] = molecular target: Sigma non-opioid intracellular receptor 1 (Cavia porcellus, UniProt Q60492); experiment: Displacement of [3H]-(+)-pentazocine from sigma1 receptor in guinea pig brain cortex membranes incubated for 120 mins by solid scintillation counting method; type: cell membranes
[9] = Drug metabolism in C57BL/6 mouse liver microsomes assessed as hydroxylation at aliphatic and aromatic ring at 25 uM incubated for 90 mins in presence of phase 1 cofactor NADPH by LC-qTOF/MS analysis; type: ADME, Microsome; details: 1.5 h
in vitro = details: C57BL/6, mouse, liver microsomes
Description: Metabolic stability in C57BL/6 mouse liver microsomes assessed as parent compound remaining at 25 uM incubated for 90 mins in presence of NADPH by LC-qTOF/MS analysis

[10] = Drug metabolism in C57BL/6 mouse liver microsomes assessed as (2S,3S,4S,5R)-3,4,5-trihydroxy-6-(7-(methyl(3-phenylpropyl)amino)-6,7,8,9-tetrahydro-5H-benzo[7]annulen-5-yloxy)tetrahydro-2H-pyran-2-carboxylic acid formation at 25 uM incubated for 90 mins in presence of phase 1 and 2 cofactors NADPH and UDPGA by LC-qTOF/MS analysis; type: ADME, Microsome; details: 1.5 h
[11] = Drug metabolism in C57BL/6 mouse liver microsomes assessed as glucuronide metabolite formation at 25 uM incubated for 90 mins in presence of phase 1 and 2 cofactors NADPH and UDPGA by LC-qTOF/MS analysis; type: ADME, Microsome; details: 1.5 h
[12] = Drug metabolism in C57BL/6 mouse liver microsomes assessed as hydroxylation at aromatic ring at 25 uM incubated for 90 mins in presence of phase 1 cofactor NADPH by LC-qTOF/MS analysis; type: ADME, Microsome; details: 1.5 h
[13] = Drug metabolism in C57BL/6 mouse liver microsomes assessed as hydroxylation at aliphatic ring at 25 uM incubated for 90 mins in presence of phase 1 cofactor NADPH by LC-qTOF/MS analysis; type: ADME, Microsome; details: 1.5 h
[14] = Retention time of compound in C57BL/6 mouse liver microsomes at 25 uM by LC-qTOF/MS analysis; type: ADME, Microsome

Sequence of Sigma non-opioid intracellular receptor 1 (Q60492 whole entry): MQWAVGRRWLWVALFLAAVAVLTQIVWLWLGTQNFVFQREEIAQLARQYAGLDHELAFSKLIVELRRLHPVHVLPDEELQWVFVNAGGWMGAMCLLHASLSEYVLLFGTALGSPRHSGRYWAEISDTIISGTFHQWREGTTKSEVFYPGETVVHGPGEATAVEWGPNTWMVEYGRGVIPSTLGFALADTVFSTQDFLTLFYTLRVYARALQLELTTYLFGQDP
Sequence of Sigma non-opioid intracellular receptor 1 (Cavia porcellus) (Q60492 whole entry): as above

Ki [6] [nM] | inhibition (Sus scrofa) [%] | Ki [8] [nM] | SMILES | Activity [1] [%] | Ki [2] [nM] | IC50 [3] [nM] | other results
 |  |  | c1ccc(CCCNC2CCc3ccccc3CC2)cc1 | 29 | 16 |  | 
 |  |  | C[C@@H](CN1CCC(Cc2ccccc2)CC1)[C@@H](O)c1ccc(O)cc1 |  | 170 | 13 | 
 |  |  | COc1ccc2c(c1)CCC(NCCCc1ccccc1)CC2 (stereo unspecified) |  | 10 |  | IC50 [4]: 29 nM
 |  |  | Oc1ccc2c(c1)CCC(NCCCCc1ccccc1)CC2 (stereo unspecified) |  | 21 | 3000 | 
 |  |  | Oc1ccc2c(c1)CCC(NCCCc1ccccc1)CC2 (stereo unspecified) |  | 28 | > 10000 | 
 |  |  | CN(CCCc1ccccc1)C1CCc2ccccc2C(O[C@@H]2O[C@H](C(=O)O)[C@@H](O)[C@H](O)[C@H]2O)C1 (stereo partly specified) |  |  |  | Retention_time [5]: 4.8 min
630 | 14 |  | OC1c2ccccc2CCC(NCCCc2ccccc2)C1O (mixture of isomers) | 41 | 2000 |  | inhibition [7]: 17%
66 | 0 | 33 | CN(CCCCc1ccccc1)C1CCc2ccccc2C(O)C1 (mixture of isomers) | 10 | 64 |  | 
100 | 0 | 1300 | OC1Cc2ccccc2CCC1NCCCc1ccccc1 (mixture of isomers) | 22 | 380 |  | 
35 | 0 | 39 | CN(CCCc1ccccc1)C1CCc2ccccc2C(O)C1 (mixture of isomers) |  | 49 | 580 | Drug metabolism [9]: Metabolite_Detected; remaining at 1.5 h, 25 µM (in vitro): 17%; Drug metabolism [10]: Metabolite_Detected; Drug metabolism [11]: Metabolite_Detected; Drug metabolism [12]: Metabolite_Detected; Drug metabolism [13]: Metabolite_Detected; Retention_time [14]: 5.1 min
100 | 0 | 140 | OC1CC(NCCCCc2ccccc2)CCc2ccccc21 (mixture of isomers) | 12 |  |  | 
100 | 0 | 430 | OC1Cc2ccccc2CCC1NCCCCc1ccccc1 (mixture of isomers) | 0 | 270 |  | 
28 | 0 | 160 | OC1CC(NCCCc2ccccc2)CCc2ccccc21 (mixture of isomers) |  | 77 | 1600 | 
 |  |  | COc1ccc2c(c1)CC[C@@H](NCCCc1ccccc1)C[C@H]2O (racemic) |  | 16 |  | IC50 [4]: 12 nM
 |  |  | OC(CN1CCC(Cc2ccc(F)cc2)CC1)c1ccc(Cl)cc1 (stereo unspecified) [ELIPRODIL] |  | 13 |  | 
 |  |  | CC(C(O)c1ccc(O)cc1)N1CCC(Cc2ccccc2)CC1 (stereo unspecified) [IFENPRODIL] |  | 10 |  | 
